Several values for one entry are separate records, joined by “and”; a condition that tells them apart may be missing. Equal entries are not always repeated. Activity calls are given as the source filed them. No rule for the calls is given here.
What follows are compounds tested against Ubiquitin-conjugating enzyme E2 N (Homo sapiens) (UniProt P61088) (assay: analogue potency against UBC13 ubiquitin chains – biochemical, TR-FRET, SAR follow-up (AID 504687)). Conditions: UBC13 polyubiquitin formation.
Chain of Ubiquitin-conjugating enzyme E2 N (Homo sapiens) (P61088 whole entry, looked up): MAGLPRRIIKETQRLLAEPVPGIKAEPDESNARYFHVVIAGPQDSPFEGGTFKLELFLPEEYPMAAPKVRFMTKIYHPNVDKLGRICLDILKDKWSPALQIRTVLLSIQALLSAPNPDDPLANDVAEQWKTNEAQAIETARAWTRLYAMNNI

| Compound | IC50 |
| --- | --- |
| Cc1ccc2c(c1)C1CN(C)CCC1N2C(=O)CCCN1C(=O)c2cccc3cccc(c23)C1=O (stereo unspecified) | 3.92 µM |
| CC(=O)c1ccc(OCC(O)CN2CCN(CCN3C(=O)c4cccc5cccc(c45)C3=O)CC2)cc1 (stereo unspecified) | 2.28 µM |
| O=C1c2cccc3cccc(c23)C(=O)N1CC1CCN(CC(O)COc2ccc3ccccc3c2)CC1 (stereo unspecified) | 3.32 µM |
| CC(NC(=O)CCCCCN1C(=O)c2ccccc2C1=O)c1nc(-c2ccccc2)no1 (stereo unspecified) | 10.6 µM |
| O=C(CCCCCN1C(=O)c2cccc3cccc(c23)C1=O)NCCO | 12.7 µM |
| O=C(NCCCN1CCCCC1)C1CCN(c2ncnc3c2nc2n3CCCCC2)CC1 | 4.58 µM |
| O=C1c2cccc3cccc(c23)N1Cc1ccc(F)cc1 | 3.57 µM |
| CN(CCNC(=O)C1CCN(c2ncnc3c2nc2n3CCCCC2)CC1)Cc1ccccc1 | 1.65 µM |
| Cc1cc(C)c2sc(N(CCCN(C)C)C(=O)c3ccc(S(=O)(=O)N(C)C4CCCCC4)cc3)nc2c1 | 7.48 µM |
| CN1CCN(CCCNC(=O)c2ccc(/C=C3\Oc4ccccc4N(Cc4ccc(Cl)cc4)C3=O)cc2)CC1 | 4.33 µM |
| O=C(C1CCN(c2ncnc3c2nc2n3CCCCC2)CC1)N1CCOCC1 | inactive |
| Cc1ccc(C)c(OCC(O)CN2CCN(CCN3C(=O)c4cccc5cccc(c45)C3=O)CC2)c1 (stereo unspecified) | 5.46 µM |
| CN(C)CCCN(C(=O)c1ccc(S(=O)(=O)N2CCCCCC2)cc1)c1nc2cc3c(cc2s1)OCCO3 | 2.12 µM |
| CCN(Cc1ccccc1)S(=O)(=O)c1ccc(C(=O)N(CCCN(C)C)c2nc3cc4c(cc3s2)OCCO4)cc1 | 1.51 µM |
| COc1ccc(-c2oc3ncnc(N)c3c2-c2ccccc2)cc1 | 2.06 µM |
| Cc1ccc(C)c(CN2CCC(CNC(=O)C3CCCN(c4ncnc5c4nc4n5CCCCC4)C3)CC2)c1 (stereo unspecified) | 3.42 µM |
| CC1(C)Cc2c(sc(NC(=O)COc3ccc(Cl)cc3Cl)c2C(N)=O)C(C)(C)N1 | 1.66 µM |
| COc1cccc2sc(N(CCCN(C)C)C(=O)c3ccc(S(=O)(=O)N4CCc5ccccc5C4)cc3)nc12 | 1.85 µM |
| CCOc1ccc2nc(N(CCCN(C)C)C(=O)c3ccc(C(=O)c4ccccc4)cc3)sc2c1 | 3.4 µM |
| CN(C)CCCN(C(=O)c1ccc2c(c1)CCCC2)c1nc2ccc(Cl)cc2s1 | 10.7 µM |
| C=CCc1ccccc1OCC(O)CN1CCN(CCN2C(=O)c3cccc4cccc(c34)C2=O)CC1 (stereo unspecified) | 11.7 µM |
| O=C(CCCCCN1C(=O)c2ccccc2C1=O)Nc1nc(C2CC2)cs1 | > 100 µM (inactive) |
| CCN(Cc1ccccc1)S(=O)(=O)c1ccc(C(=O)N(CCCN(C)C)c2nc3cc(C)cc(C)c3s2)cc1 | 4.07 µM |

| Compound | IC50 |
| --- | --- |
| O=C1c2cccc3cccc(c23)C(=O)N1CCN1CCN(CC(O)COc2ccc3c(c2)OCO3)CC1 (stereo unspecified) | 6.68 µM |
| CCCCOC(=O)c1cccc(NC(=O)CCCCCN2C(=O)c3ccccc3C2=O)c1 | inactive |
| O=C(NCC1CCN(Cc2ccc(F)cc2)CC1)C1CCCN(c2ncnc3c2nc2n3CCCCC2)C1 (stereo unspecified) | 3.53 µM |
| COc1cc2nc(N(CCCN(C)C)C(=O)c3ccc(S(=O)(=O)N4CCc5ccccc5C4)cc3)sc2cc1OC | 3.79 µM |
| CC(NC(=O)CCCCCN1C(=O)c2cccc([N+](=O)[O-])c2C1=O)c1ccccc1 (stereo unspecified) | inactive |
| COc1ccc2sc(N(CCCN(C)C)C(=O)c3ccc(S(=O)(=O)N4CCc5ccccc5C4)cc3)nc2c1 | 5.62 µM |
| O=C(CCCCCN1C(=O)c2ccccc2C1=O)N1CCN(c2ccc([N+](=O)[O-])cc2)CC1 | > 100 µM (inactive) |
| Cc1cccc(OCC(O)CN2CCN(CCN3C(=O)c4cccc5cccc(c45)C3=O)CC2)c1C (stereo unspecified) | 4.76 µM |
| COc1ccc(OC)c2sc(N(CCCN(C)C)C(=O)c3ccc(S(=O)(=O)N4CCc5ccccc5C4)cc3)nc12 | 0.79 µM |
| COc1cccc(OCC(O)CN2CCN(CCN3C(=O)c4cccc5cccc(c45)C3=O)CC2)c1 (stereo unspecified) | 9.98 µM and 9.03 µM |
| CCOc1ccc(NC(=O)Cn2c(=O)n(CCCC(=O)NC3CCN(Cc4ccccc4)CC3)c(=O)c3ccccc32)cc1 | 3.06 µM |
| O=C1c2cccc3cccc(c23)C(=O)N1CCN1CCN(CC(O)COc2ccccc2)CC1 (stereo unspecified) | 17.6 µM |
| O=C(CCCCCN1C(=O)c2ccccc2C1=O)NCc1ccco1 | 18.1 µM |
| CN(C)CCCN(C(=O)c1ccc(S(=O)(=O)N2CCCCC2)cc1)c1nc2cc3c(cc2s1)OCO3 | 8.13 µM |
| O=C(c1ccco1)N1CCN(C(=O)C2CCN(c3ncnc4c3nc3n4CCCCC3)CC2)CC1 | inactive |
| CCOC(=O)c1c(NC(=O)COc2ccccc2C#N)sc2c1CC(C)(C)NC2(C)C | 2.35 µM |
| NNC(=O)c1ccc(CN2C(=O)c3cccc4cccc2c34)cc1 | 1.78 µM |
| O=C(C1CCN(c2ncnc3c2nc2n3CCCCC2)CC1)N1CCN(c2ccccn2)CC1 | inactive |
| COc1cc(/C=C/c2cc[n+](C)cc2)ccc1OCC(=O)Nc1ccc(Cl)c(Cl)c1 | 3.5 µM |
| O=C(CCCn1c(=O)c2ccccc2n(Cc2cccc(F)c2)c1=O)NC1CCN(Cc2ccccc2)CC1 | 0.51 µM |
| O=C1c2cccc3cccc(c23)C(=O)N1CCN1CCN(CC(O)COCc2ccc(Cl)cc2)CC1 (stereo unspecified) | 1.07 µM |
| O=C(C1CCN(c2ncnc3c2nc2n3CCCCC2)CC1)N1CCC(Cc2ccccc2)CC1 | 15 µM |
| COc1ccc(CCNC(=O)CCCCCN2C(=O)c3ccccc3C2=O)cc1 | inactive |
